Measured values as given in ChEMBL document CHEMBL6109142 (J Med Chem, 2025).
Activity calls are given as the source filed them. No cut-off for these calls is given here.

Test system: SARS-CoV-2
Test: Antiviral activity against SARS-CoV-2 pseudotyped with delta spike protein infected in HEK293T cells harbouring hACE2 assessed as decrease in virus-like particle cellular entry at 10 uM preincubated with cells for 3 hrs followed by viral infection and measured after 72 hrs by ONE-Glo-Ex luciferase assay
Type: functional, organism-based
Details: Severe acute respiratory syndrome coronavirus 2, time 75.0 hrs

N=C(N)NCCC[C@H](NC(=O)[C@H](Cc1ccccc1)NC(=O)[C@H](CCC(N)=O)NC(=O)OCc1ccccc1)C(=O)c1nccs1
Activity: inactive

CS(=O)(=O)N[C@@H](CCC(N)=O)C(=O)N[C@@H](Cc1ccccc1)C(=O)N[C@@H](CCCNC(=N)N)C(=O)c1nc2ccccc2s1
Activity: inactive

CN(C)C(=O)COC(=O)Cc1ccc(OC(=O)c2ccc(NC(=N)N)cc2)cc1 [CAMOSTAT]
Activity: inactive

CCOC(=O)[C@H]1O[C@@H]1C(=O)N[C@@H](CC(C)C)C(=O)NCCC(C)C
Activity: Active
